In assay [1] the test system is HES1 reporter gene. It counts as cell-based, S. cerevisiae. As to conditions: ABY140 (pdr5::KanMX yor1::KanMX) vs ABY11 wild-type. The protocol:
To further test the viability of this indicator gene in a high-throughput screen, the regulation of the HES1 reporter was tested in two different strain backgrounds ABY11 (MATa leu2Δ1 ura3-52) is a wild-type strain.
The ABY140 [HES1] strain was used to screen approximately 16,800 chemicals from a combinatorial chemistry library. […] Twenty-four of these chemical were further tested in a secondary screen for the ability to induce four additional indicator (also referred to as reporter) genes whose expression are also coordinately regulated with genes encoding ergosterol biosynthetic enzymes.

For assay [2], the system named is HES1 reporter. As to conditions: 384-well array, various concentrations, 30° C., 24 hrs. The protocol:
Cells were grown to mid-log phase at 30° C. in casamino acids medium (0 67% yeast nitrogen base, 2% glucose, 2% casamino acids). Cell density was adjusted prior to incubation in various concentrations of drug Arrays were incubated at 30° C. for 24 hrs prior to imaging.

Assay [3] relates to yjl105w mutant strain. Kind of assay: Lovastatin drug disk on yeast lawn, yjl105w mutant vs wild-type. It counts as cell-based, S. cerevisiae. As to conditions: 250 μg on sterile disk, 5×10^6 cells, overnight at 30° C. Here is the method:
FIG. 4. Effects of lovastatin on wild-type and YJL105w knockout yeast strains. 10 μl of a 25 mg/ml solution of lovastatin (250 μg) in ethanol was applied to a sterile drug disk on a lawn of yeast (5×10^6 cells, ABY363). The plates were incubated overnight at 30° C.
To test whether YJL105w has a role in isoprenoid metabolism, a yjl105w mutant where the entire ORF was replaced with the kanamycin resistance gene was constructed. Approximately 5×10^6 cells of the yjl105w mutant strain and a wild-type control strain (ABY363, MATα his3Δ1 leu2Δ0 lys2Δ0 ura3Δ0) were plated onto separate non-selective agar plates. The sterol biosynthetic inhibitor lovastatin (250 μg) was applied to a sterile disk on each lawn and the cells were allowed to grow overnight at 30° C.

The values that follow come from US7078169B2 (priority 1999, dated 2006).

In the case of `Clc1ccc(COC(Cn2ccnc2)c2ccc(Cl)cc2Cl)cc1` (stereo not shown) [Econazole], the “sensitivity of HES1 reporter gene induction in ABY140 compared to ABY11” value in assay [1] is reported as “more sensitive”. Moreover, in assay [2], the “induction of the HES1 reporter” value was “specifically induced”.

Turning to `Nc1[nH]c(=O)ncc1F` [Flucytosine], the “sensitivity of HES1 reporter gene induction in ABY140 compared to ABY11” value in assay [1] is on record as “not”.

For `CC[C@H](C)C(=O)O[C@H]1C[C@@H](C)C=C2C=C[C@H](C)[C@H](CC[C@@H]3C[C@@H](O)CC(=O)O3)[C@H]21` [lovastatin], in assay [3], the “resistance of yjl105w mutant strain to treatment relative to wild-type control (ABY363)” value was “significantly more resistant”.
